This passage reports inhibition results from patent US9271962B2 (NORTHEASTERN UNIVERSITY, priority 2008, dated 2016).

One assay has as its target T1, hMGL (Homo sapiens, UniProt Q99685).
T1 construct: A full-length cDNA clone of the human MGL transcript variant 1; made in house; host or cells: E. coli BL21 (DE3)
T1 sequence (Q99685 2-303 limits assumed): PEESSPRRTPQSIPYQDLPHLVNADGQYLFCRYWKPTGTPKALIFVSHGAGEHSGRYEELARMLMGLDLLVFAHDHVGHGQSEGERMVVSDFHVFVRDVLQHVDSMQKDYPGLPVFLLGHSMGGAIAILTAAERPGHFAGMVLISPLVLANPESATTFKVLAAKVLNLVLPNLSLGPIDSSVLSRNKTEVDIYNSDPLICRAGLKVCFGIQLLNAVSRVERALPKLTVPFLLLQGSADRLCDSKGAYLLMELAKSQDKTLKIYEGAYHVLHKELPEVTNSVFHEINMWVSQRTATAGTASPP
As to the kind of experiment: Fluorescent enzyme assay, MGL (AHMMCE hydrolysis). Format: biochemical. The conditions noted are these: for inhibition at 1 µM: 1000 nM inhibitor; for inhibition at 1 µM / inhibition at 0.01 µM: AHMMCE substrate, screening assay; for inhibition at 0.01 µM: 10 nM inhibitor, read-out: % Inhibition of Enzyme by inhibitor, MGL, 10 nM; for inhibition at 100 µM: 100 uM inhibitor, printed in the 1000 nM column. The method, then: (§1) Some analogs were tested for their FAAH/MGL inhibitory activity, which is expressed as % of inhibition (Tables 2, 3, and 4 below). The percentage of inhibition results from three-point assay (three concentrations of inhibitor are used) and it is less accurate (preliminary screening) than the IC50/Ki values that are determined from eight-point assay (eight different concentrations of inhibitor were used). The percentage of inhibition describes the percentage by which the inhibitor reduces the velocity/rate of AAMCA (arachidonoyl-7-amino-4-methylcoumarin amide) or AHMMCE (arachidonoyl-7-hydroxy-6-methoxy-4-methylcoumarin ester) hydrolysis by FAAH or MGL respectively. The IC50 is the concentration of the inhibitor, which results in 50% inhibition of the velocity/rate of AAMCA (arachidonoyl 7-amino-4-methylcoumarin amide) hydrolysis by FAAH or AHMMCE (Arachidonoyl, 7-hydroxy-6-methoxy-4-methylcoumarin ester) hydrolysis by MGL. The Ki value is the affinity constant and describes the ability of the compounds to inhibit the function of FAAH or MGL. The lower the IC50/Ki values, the higher the affinity of the inhibitor for the enzyme and the higher its inhibitory activity. A detailed description of the methods used to test inhibitory activity of compounds is given below.
A full-length cDNA clone of the human MGL transcript variant 1 (gi: 51242951) was obtained from OriGene Technologies (Rockville, Md.). The coding part of the MGL sequence (except the translation initiation codon ATG) was amplified by a polymerase chain reaction (PCR) using forward […] and reverse […] primers containing PmlI and SacI restriction enzyme recognition sites, respectively. iProof high-fidelity DNA polymerase (Bio-Rad, Hercules, Calif.) was used in the PCR amplification with 33 cycles, each consisting of denaturation at 94° C. for 10 s, annealing at 55° C. for 33 s, and extension at 72° C. for 1 min. The PCR product and pET45b vector were digested with PmlI and SacI restriction enzymes, and the vector was dephosphorylated with CIP followed by in-gel purification using the MinElute Gel Extraction Kit (Qiagen Corp., Valencia, Calif.). The fragment was inserted into the vector directly downstream after the 6 histidine and valine codons, generating the construct pET45His6hMGL for expression of hMGL containing an N-terminal His6-tag. GC10 E. coli cells were used for DNA transformation and plasmid propagation. Mini- and midi-scale plasmid DNA preparations were performed using a GenElute Plasmid Miniprep Kit (Sigma) and PureYield Plasmid Midiprep System (Promega, Madison, Wis.), respectively. In-frame vector-fragment junctions and the coding sequence of the recombinant gene were confirmed by sequencing. The pET45His6hMGL construct was transformed into BL21 (DE3) and Origami (DE3) E. coli expression strains (Novagen, Madison, Wis.).
A single E. coli BL21 (DE3) colony containing the pET45His6hMGL plasmid was inoculated into 12 mL of Luria broth-ampicillin medium and grown overnight with shaking (250 rpm) at 37° C. The next morning, 10 mL of this culture was inoculated into 1 L of fresh Luria broth-ampicillin and allowed to grow until culture turbidity reached an (OD)600 of 0.6-0.8, at which time expression from the T7 promoter was induced by adding isopropyl-β-D-thio-galactopyranoside (1 mM). After 5 h induction, the cells were harvested by centrifugation at 5,000 g for 10 min at 4° C., washed with PBS, and held at −80° C. Five grams (wet-weight) of cells were resuspended in 50 mL lysis buffer (100 mM NaCl; 50 mM Tris, pH 8.0) supplemented with Triton X-100 (0.5%), lysozyme (0.2 mg/mL), and DNase I (25 μg/ml) and disrupted on ice by three, one-min sonication cycles, each consisting of 1-sec sonication bursts at 50 W power separated from each other by a 2-sec interval (Vibra-Cell 500 W, Sonics, Newtown, Conn.). The cell lysate was centrifuged at 10,000 g for 30 min at 4° C. […]

The next assay has as its target T2, ΔTM rFAAH (Rattus norvegicus, UniProt P97612).
T2 construct: 15 ug of ΔTM rFAAH (cell lysate obtained by recombinant procedure); made in house
T2 sequence (P97612 30-579 limits assumed): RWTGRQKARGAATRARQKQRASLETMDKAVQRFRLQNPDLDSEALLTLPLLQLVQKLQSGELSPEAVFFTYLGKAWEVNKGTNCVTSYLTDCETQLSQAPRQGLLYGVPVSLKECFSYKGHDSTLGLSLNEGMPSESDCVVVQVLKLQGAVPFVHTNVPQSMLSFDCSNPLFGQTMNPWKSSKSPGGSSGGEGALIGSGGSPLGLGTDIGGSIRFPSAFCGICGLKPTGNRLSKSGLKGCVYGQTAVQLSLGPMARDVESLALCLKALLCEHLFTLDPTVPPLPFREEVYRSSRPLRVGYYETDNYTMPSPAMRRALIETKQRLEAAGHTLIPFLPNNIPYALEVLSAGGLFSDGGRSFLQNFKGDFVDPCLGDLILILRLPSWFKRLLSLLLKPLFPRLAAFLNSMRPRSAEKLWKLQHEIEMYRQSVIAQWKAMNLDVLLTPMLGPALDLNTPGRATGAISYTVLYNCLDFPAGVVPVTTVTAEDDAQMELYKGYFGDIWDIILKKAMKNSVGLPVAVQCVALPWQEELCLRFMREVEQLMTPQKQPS
As to the kind of experiment: Fluorescent enzyme assay, FAAH (AAMCA hydrolysis). Format: biochemical. The note with it: AAMCA substrate, screening assay; for inhibition at 1 µM: 1000 nM inhibitor; for inhibition at 0.01 µM: 10 nM inhibitor. The method, then: as §1
The enzyme (FAAH and MGL) assays were performed in 96 well plates (Coster #3650) in a total volume of 200 uL. Fluorogenic substrate AAMCA (arachidonoyl 7-amino-4-methylcoumarin amide) for FAAH and AHMMCE (arachidonoyl 7-hydroxy-6-methoxy-4-methylcoumarin ester) for MGL were used using BioTek Synergy HT Microplate Reader. Compounds and substrates were dissolved in DMSO provide a 10 mM stock solution and kept as a stock solution at −20° C. until used for assay. Stock solutions were thawed and reconstituted in 50:50 DMSO/assay buffer to a final DMSO concentration per well below 8%. This ensures that the compounds and substrate are in solution during assay. […] Appropriate substrate was added to adjust the final concentration in each well to 20 uM for FAAH (2× Km) and 10 uM for MGL (1×KM). Fluorescence readings were performed at λex=360/λem=460 for 4 h using Kinetic assay protocol at every 20 min (the fluorescent product coumarin produced is quantitated by this procedure). The readings at 3 h for FAAH and 2 h for MGL (linear maximum hydrolysis kinetics of enzyme on substrate) were used to calculate percent inhibition based on controls. Compounds which had more than 50 percent inhibition at 10 uM were selected for dose response study to determine IC50 values. The dose response at 8 concentration points was performed as with the screening assay except that compounds were serially diluted to 8 concentration points which were chosen based on IC50 value, which were calculated from the screening assay results. Assays are run twice in triplicates and Graphpad Prism software is used to plot inhibition data to obtain IC50 values.

On to `COc1ccc(Cc2nnnn2C(=O)N(C)C)cc1` [Compound 24b], for which the values for the inhibition at 1 µM against hMGL and at ΔTM rFAAH were 96% and 100%, respectively.
For `CN(C)C(=O)n1ncnn1` [Compound 1a, N,N-dimethyl-2H-tetrazole-2-carboxamide], the figures for the inhibition at 0.01 µM at hMGL and on ΔTM rFAAH were 58% and 73%, respectively.
In the case of `CN(C)C(=O)n1cnnn1` [Compound 1b], the inhibition at 0.01 µM turned out to be 13% at hMGL and 51% on ΔTM rFAAH.
As for `CSc1ccc(Cc2nnn(C(=O)N(C)C)n2)cc1` [Compound 23a], the inhibition at 0.01 µM on hMGL is 98%; at ΔTM rFAAH it was 91%.
The like results for `Cc1ccc(Cc2nnnn2C(=O)N(C)C)cc1` [Compound 26b] were, in that order, 23% and 85%.
In the case of `CC(C)N(C(=O)n1nnc(Cc2ccc(Cl)cc2Cl)n1)C(C)C` [Compound 10, 5-(2,4-dichlorobenzyl)-N,N-diisopropyl-tetrazole-2-carboxamide], the inhibition at 1 µM against hMGL was 11%; at ΔTM rFAAH, 94%.
As to `CN(C)C(=O)n1nnc(Cc2ccc([N+](=O)[O-])cc2)n1` [Compound 22a, N,N-dimethyl-5-(4-nitrobenzyl)-2H-tetrazole-2-carboxamide], the inhibition at 0.01 µM stood at 97% on hMGL and 92% at ΔTM rFAAH.
Take `CN(C)C(=O)n1nnc(Cc2ccc3ccccc3c2)n1` [Compound 51]: the inhibition at 100 µM against hMGL is 26%. The inhibition at 1 µM at ΔTM rFAAH was found to be 30%.
With `CN(C)C(=O)n1cnc2cncnc21` [Compound 61, N,N-dimethyl-9H-purine-9-carboxamide], the inhibition at 1 µM against hMGL and on ΔTM rFAAH was 87% in each case.
For `CN(C)C(=O)n1nnc(Cc2ccc(-c3ccncc3)cc2)n1` [Compound 44, N,N-dimethyl-5-(4-(pyridin-4-yl)benzyl)-2H-tetrazole-2-carboxamide], the inhibition at 1 µM on hMGL amounted to 10%; at ΔTM rFAAH it was 12%.
The like results for `CN(C)C(=O)N1CC(Cc2ccccc2)OC1=O` (centres unmarked) [Compound 32, 5-benzyl-N,N-dimethyl-2-oxooxazolidine-3-carboxamide] were, in that order, 3% and 5%.
On to `CN(C)C(=O)n1nnnc1Cc1ccc(OC(F)(F)F)cc1` [Compound 19b], for which the results for the inhibition at 0.01 µM on hMGL and at ΔTM rFAAH were 76% and 91%, respectively.
For `CN(C)C(=O)N1C=NC2C(N=CN2C(=O)N(C)C)C1=O` (centres unmarked) [Compound 62, N^1,N^1,N^9,N^9-tetramethyl-6-oxo-5,6-dihydro-4H-purine-1,9-dicarboxamide], the inhibition at 1 µM against hMGL was determined as 83%; at ΔTM rFAAH it was 99%.
In the case of `CN(C)C(=O)n1nnc(Cc2ccccc2Cl)n1` [Compound 45, 5-(2-chlorobenzyl)-N,N-dimethyl-2H-tetrazole-2-carboxamide], the inhibition at 0.01 µM at hMGL was determined as 93%.
On to `CN(C)C(=O)n1nnc2ccccc21` [Compound 28, N,N-dimethyl-1H-benzo[d][1,2,3]-triazole-1-carboxamide], for which the inhibition at 0.01 µM was found to be 30% at hMGL and 67% on ΔTM rFAAH.
Regarding `O=C(N1CCN(Cc2ccccc2)CC1)n1nnc(Cc2ccc(Cl)cc2Cl)n1` [Compound 15], the values for the inhibition at 1 µM on hMGL and at ΔTM rFAAH were 63% and 95%, respectively.
On to `CN(C)C(=O)n1nnc(Cc2ccc(-c3cccnc3)cc2)n1` [Compound 43, N,N-dimethyl-5-(4-(pyridin-3-yl)benzyl)-2H-tetrazole-2-carboxamide], for which, on ΔTM rFAAH, the inhibition at 1 µM turned out to be 34%.
Regarding `O=C(N1CCN(Cc2ccc3ccccc3n2)CC1)n1nnc(Cc2ccc(Cl)cc2Cl)n1` [Compound 65, (5-(2,4-dichlorobenzyl)-2H-tetrazol-2-yl)(4-(quinolin-2-ylmethyl)piperazin-1-yl)methanone], the inhibition at 100 µM on hMGL was 68%.
On to `COc1ccc(Cc2nnn(C(=O)N(C)C)n2)cc1` [Compound 24a, 5-(4-methoxybenzyl)-N,N-dimethyl-2H-tetrazole-2-carboxamide], for which the results for the inhibition at 0.01 µM on hMGL and on ΔTM rFAAH were 21% and 47%, respectively.
As to `CN(C)C(=O)n1nnc(C(F)(F)c2ccccc2)n1` [Compound 46, 5-(difluoro(phenyl)methyl)-N,N-dimethyl-2H-tetrazole-2-carboxamide], on hMGL, the inhibition at 0.01 µM came out at 2% and the inhibition at 1 µM came out at 92%.
On to `CN(C)C(=O)n1cnc(-c2ccccc2)n1` [Compound 52, N,N-dimethyl-3-phenyl-1H-1,2,4-triazole-1-carboxamide], for which, at hMGL, the inhibition at 0.01 µM worked out at 2% and the inhibition at 1 µM came out at 87%.
On hMGL, `O=C(N1CCN(Cc2ccc3ccccc3n2)CC1)n1cnc(-c2ccccc2)c1` [Compound 64, (4-phenyl-1H-imidazol-1-yl)(4-(quinolin-2-ylmethyl)piperazin-1-yl)methanone] showed an inhibition at 100 µM of 19%.
As to `CN(C)S(=O)(=O)n1nnc(Cc2ccc(-c3ccccc3)cc2)n1` [Compound 38a], the inhibition at 1 µM on ΔTM rFAAH is 25%.

Broadly, the inhibition is the share of the control response that was lost under treatment.
